# According to patent EP0813871A1, “Berberine derivates for inhibiting production of HSP47” (Kureha Chemical Industry Co., Ltd., priority 1996, dated 1997):
# Counter-ions that a name gives are not always drawn.
# Experiments:
# HSP47 = experiment: Inhibition of HSP47 production in heat-shocked human cancer cell lines (Western blotting); format: cell-based; conditions: Western blot, 20 µM
# Protocol: The following various human cancer cell lines were cultured under 5% CO2, at 37 °C, except for the heat shock treatment period. The lung cancer cell line H69 (ATCC HTB 119), the stomach cancer cell line KATO III (ATCC HTB 103), the colon cancer cell line COLO 205 (ATCC CCL 222), and the prostate cancer cell line DU145 (ATCC HTB 81) were cultured in an RPMI1640 medium containing 10% inactivated FBS.
# The breast cancer cell line MCF7 (ATCC HTB 22) was cultured in an RPMI1640 medium containing 10^-8 M β-estradiol and 10% inactivated FBS.
# The kidney cancer cell line ACHN (ATCC CRL 1611) was cultured in an MEM medium containing 10% inactivated FBS.
# The berberine hydrochloride of the formula (III) (the final concentration = 20 µM: Matsuura Yakugyo) was added to each medium of the above human cancer cell lines 2 days after the inoculation. After the berberine hydrochloride treatment for 24 hours, a heat shock was applied at 45 °C for 15 minutes, and the cells were then cultured at 37 °C overnight. The control tests were carried out by performing the above procedures except that the berberine hydrochloride was not added.
# The cells treated in the above (2) were homogenized, and the amounts of HSP47 produced were measured by the Western blotting method.
# The cells treated in the above (2) were washed with PBS(-), and 1 ml of lysis buffer [1.0% NP-40, 0.15 M sodium chloride, 50 mM Tris-HCl (pH 8.0), 5 mM-EDTA, 2 mM-N-ethylmaleimide, 2 mM phenylmethylsulfonyl fluoride, 2 µg/ml leupeptin, and 2 µg/ml pepstatin] was added. The whole was allowed to stand for 20 minutes on ice, and then centrifuged at 4 °C and 12000 rpm for 20 minutes. The resulting supernatant (10 µl) was added to 790 µl of PBS(-), and then 200 µl of a protein assay dye reagent solution (Dye Reagent Concentrate: Bio-Rad Laboratories, Catalogue No. 500-0006) was added. The whole was allowed to stand at room temperature for 5 minutes, and the absorbance at 595 nm was measured to determine the amounts of proteins.
# For the SDS-polyacrylamide gel electrophoresis (SDS-PAGE) of the samples, the protein concentration of which were measured, aliquots containing the same amount of protein were loaded onto the gel. The SDS-PAGE was performed according to the Laemmli method. After the electrophoresis, the blotting and then blocking were carried out in accordance with the methods described in Example 1. More particularly, the gel was brought into contact with a 0.45 µm nitrocellulose membrane (Schleicher & Schuell, Catalogue No. 401196) at room temperature and 100 V, using a protein-transferring apparatus (Trans-Blot Electrophoretic Transfer Cell: Bio-Rad), and blotting was carried out for 3 hours. The blotting buffer used was same as that used in Example 1 (3). After blotting, the nitrocellulose membrane was incubated in a 10% skimmed milk-PBS(-) solution at room temperature for 30 minutes, to block non-specific bindings.
# After blocking, the first antibody reaction was carried out on the nitrocellulose membrane, using a screener blotter (Sanplatec), and the anti-human-HSP47 rat polyclonal antibody prepared in Example 1. Thereafter, the nitrocellulose membrane was washed with two fresh PBS(-) solutions for 5 minutes, using a slow rocking shaker, and then with four fresh PBS(-)-0.1% Tween 20 (Bio-Rad, Catalogue No. 170-6531) solutions for 15 minutes, and finally, with two fresh PBS(-) solutions for 5 minutes.
# After washing, the second antibody reaction was carried out for 2 hours, using 5 ml of a solution prepared by diluting a peroxidase-labeled goat anti-rat IgG antibody (Southern Biotechnology, Catalogue No. 3030-05) 5000-fold with a PBS(-) solution containing 2% skimmed milk. After the reaction, the nitrocellulose membrane was washed with two fresh PBS(-) solutions for 5 minutes, and with five fresh PBS(-)-0.1% Tween 20 solutions for 15 minutes, using a slow rocking shaker, and finally, with two fresh PBS(-) solutions for 5 minutes. […]
# [1] = agent containing berberine as an active ingredient; cited from earlier work
# mice = conditions: P. acnes intraperitoneally, lipopolysaccharide intraperitoneally 7 days later; cited from earlier work
SMILES,band of the molecular weight of approximately 47 kDa (HSP47; breast cancer cell line MCF7),band of the molecular weight of approximately 47 kDa (HSP47; colon cancer cell line COLO 205),"band of the molecular weight of approximately 47 kDa (HSP47; kidney cancer cell line ACHN, in comparison with the control tests)",band of the molecular weight of approximately 47 kDa (HSP47; lung cancer cell line H69),band of the molecular weight of approximately 47 kDa (HSP47; prostate cancer cell line DU145),band of the molecular weight of approximately 47 kDa (HSP47; stomach cancer cell line KATO III),anti-GEM (glomerular basement membrane) nephritis [1],survival rate of mice (mice)
COc1ccc2cc3[n+](cc2c1OC)CCc1cc2c(cc1-3)OCO2 [berberine hydrochloride],no band of the molecular weight of approximately 47 kDa was detected,no band of the molecular weight of approximately 47 kDa was detected,faint,no band of the molecular weight of approximately 47 kDa was detected,no band of the molecular weight of approximately 47 kDa was detected,no band of the molecular weight of approximately 47 kDa was detected,,
COc1ccc2cc3[n+](cc2c1OC)CCc1cc2c(cc1-3)OCO2 [berberine],,,,,,,effectively improved,effectively improved
